The results in this text go back to patent US9597337B2, “Berberine-ursodeoxycholic acid conjugate for treating the liver” (NORTH AMERICAN BIOMEDICAL RESEARCH CENTER USA, INC., priority 2014, dated 2017).

For experiment [1], the system named is KMCH cells. The experiment can be described thus: CCK-8 cell viability assay in KMCH cells. Format: cell-based. An excerpt:
(§1) FIG. 2 is a set of graphs showing the ability of various molecules to kill KMCH and GS-Li013 cells, which are cholangiocarcinoma cells. The data presented in FIG. 2 is based on in-vtro studies. The y-axis of each graph represents the Cell viability percentage 205 of KMCH and GS-Li013 cells. The x-axis of each graph represents the Log[C]210. [C] refers to the concentration of the molecule tested in uM. IC50 commonly refers to the half maximal inhibitory concentration, and is used to numerically represent the efficacy of various molecules to be effective in their respective tasks. In this case, IC50 means the concentration at which half of the target cells are no longer viable. […] The unit uM is used to represent the IC50 value. uM is the same as micro molar concentration, which is 10^−6 moles/liter, a common concentration unit.
(§2) To obtain the data in FIG. 2, Cell Counting Kit-8 (CCK-8) was used. CCK-8 is commercially available from Dojindo Molecular Technologies, Inc. CCK-8 allows sensitive colorimetric assays for the determination of cell viability in cell proliferation and cytotoxicity assays. Dojindo's highly water-soluble tetrazolium salt, used in CCK-8, is reduced by dehydrogenase activities in cells to give a yellow-color formazan dye, which is soluble in the tissue culture media. The amount of the formazan dye, generated by the activities of dehydrogenases in cells, is directly proportional to the number of living cells. The detection sensitivity of CCK-8 may be higher than the other tetrazolium salts such as MTT, XTT, MTS or WST-1. Cancerous cells in a cell culture were exposed to the either irinotecan, ursodeoxycholic acid, berberine, or NABR01, and the results were recorded. Various concentrations of each molecule were used, resulting in different amount of cell viability. Cell viability was measured according to the procedures of CCK-8, namely higher cell counts lead to higher absorption measurements, which would mean lower drug efficacy.
DLD1 refers to Dukes' type C, colorectal adenocarcinoma, and NABR01 has an IC50 of 5.0 uM for DLD1. HCT2 refers to a hamster lymphoid cell line, and NABR01 has an IC50 of 6.0 uM for HCT2. […] NABR01 has an unexpectedly effective IC50 of less than 10 uM for the cell lines described above, and the related cancers.
For orientation: Formazan colour is commonly taken as a measure of viable cells.

In experiment [2] the test system is GS-Li013 cells. As to the kind of experiment: CCK-8 cell viability assay in GS-Li013 cells. The format is cell-based. As to conditions: GS-Li013 (GS-cell lines), 24 hour treatment.
Source text: as §1, §2

Experiment [3] concerns DLD1. As to the kind of experiment: CCK-8 cell viability assay, DLD1. As to conditions: Homo sapiens, DLD-1, DLD1, 48 hour period. The format is cell-based.
Source text: as §2
(§3) DLD1 refers to Dukes' type C, colorectal adenocarcinoma, and NABR01 has an IC50 of 5.0 uM for DLD1. HCT2 refers to a hamster lymphoid cell line, and NABR01 has an IC50 of 6.0 uM for HCT2. […]

In experiment [4] the test system is HCT2. As to the kind of experiment: CCK-8 cell viability assay, HCT2. The format is cell-based, hamster. As to conditions: Mesocricetus auratus, HCT2, 48 hour period.
Source text: as §2, §3

Experiment [5] relates to CCA. As to the kind of experiment: CCK-8 cell viability assay, CCA. Format: cell-based. The settings on record: 48 hour period.
Source text: as §2, §3

In experiment [6] the test system is HepG2. The experiment can be described thus: CCK-8 cell viability assay, HepG2. Format: cell-based. The settings on record: Homo sapiens, HepG2, 48 hour period.
Source text: as §2, §3

The subject of experiment [7] is MDA468. As to the kind of experiment: CCK-8 cell viability assay, MDA468. The format is cell-based. As to conditions: MDA468, 48 hour period.
Source text: as §2, §3

Experiment [8] deals with U2OS. As to the kind of experiment: CCK-8 cell viability assay, U2OS. The format is cell-based. The settings on record: Homo sapiens, 48 hour period.
Source text: as §2, §3

Experiment [9] deals with PANC1. The experiment can be described thus: CCK-8 cell viability assay, PANC1. The format is cell-based. As to conditions: Homo sapiens, PANC-1, PANC1, 48 hour period.
Source text: as §2, §3

Experiment [10] concerns HCT. The experiment can be described thus: CCK-8 cell viability assay, HCT. The format is cell-based. The settings on record: 48 hour period.
Source text: as §2, §3

Experiment [11] concerns HT29. As to the kind of experiment: CCK-8 cell viability assay, HT29. The format is cell-based. As to conditions: Homo sapiens, HT-29, HT29, 48 hour period.
Source text: as §2, §3

In experiment [12] the test system is MCF7. As to the kind of experiment: CCK-8 cell viability assay, MCF7. The settings on record: Homo sapiens, MCF7, 48 hour period. The format is cell-based.
Source text: as §2, §3

Experiment [13] has as its system SJSA. The experiment can be described thus: CCK-8 cell viability assay, SJSA. Format: cell-based. The settings on record: 48 hour period.
Source text: as §2
(§4) As shown in FIGS. 19-20, the efficacy of NABR01 can vary greatly depending on the cancerous cell line, and as a result, NABR01 may not be effective against certain cell lines. […]

Experiment [14] deals with HuCCT. The experiment can be described thus: CCK-8 cell viability assay, HuCCT. The format is cell-based. As to conditions: 48 hour period.
Source text: as §2, §4

Experiment [15] concerns PC3. The experiment can be described thus: CCK-8 cell viability assay, PC3. The format is cell-based. As to conditions: Homo sapiens, PC-3, PC3, 48 hour period.
Source text: as §2, §4

Experiment [16] deals with MDA231. The experiment can be described thus: CCK-8 cell viability assay, MDA231. The settings on record: Homo sapiens, MDA-MB-231, MDA231, 48 hour period. The format is cell-based.
Source text: as §2, §4

The subject of experiment [17] is KMCH cells. The experiment can be described thus: Western blot analysis of signaling and apoptosis proteins in KMCH cells. Format: cell-based. As to conditions: for cytochrome C release from mitochondria, western blot: berberine at same concentration as NABR01. Here is the method: FIGS. 6-18 is data which illustrates the mechanism of action for NABR01. Once a mechanism of action is known, it may become possible to predict with some level of accuracy the effects a drug may have, though extensive testing would still be required. Until a mechanism is known, it is extremely difficult to predict what a particular molecule or compound may be useful for, if it is even useful at all. A western blot analysis was performed for MAP kinase signaling proteins, phospho p38, phospho JNK and phospho ERK in KMCH cells with and without NABR01 treatment.
The cytotoxic effect of NABR01 in addition to downregulation of Bcl2, may be attributed to an increase in proapoptotic protein Bim which is specifically cleaved to generate the cytotoxic Bims-form in KMCH cells are treated with NABR01. Caspase-9 is cleaved in cells treated with NABR01 indicating an upstream activation of Caspase 3. […] Accordingly, not only does the ursodiol component of NABR01 assist in targeting, but ursodiol also increases efficacy of the compound when introduced directly to the relevant cells, a wholly unexpected effect.
The activity of pro-inflammatory signaling pathway protein phospho STAT may also increase in NABR01 treated cells.
Background: In western blotting, separated proteins are transferred to a membrane and probed.

In experiment [18] the test system is KMCH tumor. As to the kind of experiment: Tumor xenograft study in mice. Format: in vivo. The source says:
Tumor xenografts studies in mice indicate that the tumor growth corresponding to weight and volume in NABR01 treated group of mice was reduced by approximately 45% in size when treated for 21 days.

Setting [19] is: KMCH cells, 24 hour treatment, read-out: IC50 (cell viability).

Read-outs that look alike come from different tables or passages of the source.

As usually defined, the IC50 is the concentration at which inhibition is half-maximal. Take `COc1ccc2cc3[n+](cc2c1OCCCCCCNC(=O)CC[C@@H](C)[C@H]1CC[C@H]2[C@@H]4[C@@H](O)CC5CC(O)CC[C@]5(C)[C@H]4CC[C@]12C)CCc1cc2c(cc1-3)OCO2` (stereo in doubt) [NABR01, berberine-ursodeoxycholic acid conjugate]: the IC50 was found to be 15 µM in [1] (setting [19]); 2.9 µM in [1] (KMCH, 48 hour period, read-out: IC50); 15 µM in [2]; 5 µM in experiment [3]; 6 µM in experiment [4]; 4.8 µM in experiment [5]. In addition, the half-inhibitory concentration (IC50) in experiment [6] was determined as 5.4 µM; in experiment [7], 2.1 µM; in experiment [8] it was 4.3 µM; in [9] it was 3.3 µM; in experiment [10] it was 3.9 µM; in experiment [11], 5.2 µM. Moreover, the IC50 is 9.2 µM in experiment [12]; 14 µM in experiment [13]; 15 µM in experiment [14]; 16 µM in [15]; 36 µM in experiment [16]. Further, the “phospho PTEN, western blot” value in experiment [17] was “remain unchanged”. For the same compound, the “pro-apoptotic protein Noxa” value in experiment [17] is given as “increase”. For the same compound, the “PARP activation by cleavage, western blot” value in experiment [17] (10 uM) was “activated”. Moreover, the “anti-apoptotic protein Bcl2, western blot” value in experiment [17] (10 uM) is listed as “down regulated”. In addition, in experiment [17] (10 uM), the “phospho ERK (cell survival pathway), western blot” value was “downregulated”. Further, in experiment [17] (10 uM), the “phospho JNK (cell death signaling pathway), western blot” value was “increased”. For the same compound, the “phospho p38 (cell death signaling pathway), western blot” value in [17] (10 uM) is “increased”. In addition, the “AKT signaling pathway, western blot” value in experiment [17] (10 uM, 16 hours) is given as “downregulated”. For the same compound, in experiment [17] (10 uM, 16 hours), the “phosphor-AKT pathway, western blot” value is recorded as “downregulated”. Besides, the “proapoptotic protein Bim (cleaved to Bims-form), western blot” value in experiment [17] (10 uM, 24 hours) is given as “increase”. The “Caspase-9 cleavage, western blot” value in experiment [17] (10 uM, 48 hours) is “cleaved”. Besides, the “Phospho CKH2 (DNA repair), western blot” value in experiment [17] (16 hours) is reported as “increased activity”. The “Total P53 levels, western blot” value in experiment [17] (16 hours) is recorded as “downregulated”. Further, the “phospho STAT (pro-inflammatory signaling), western blot” value in experiment [17] (16 hours) was “increase”. Also, the “phosphoATM (DNA repair), western blot” value in [17] (16 hours) is recorded as “increased activity”. The “phospho 4EBP1, western blot” value in [17] (24 hours) is recorded as “not significantly altered”. Further, in experiment [17] (24 hours), the “phospho EF2k, western blot” value is given as “not significantly altered”. The “phospho eIF4E, western blot” value in experiment [17] (24 hours) is given as “not significantly altered”. The “phospho p70S6 kinase, western blot” value in [17] (24 hours) is “not significantly altered”. Further, the “phosphor mTOR 52481 pathway, western blot” value in experiment [17] (24 hours) is reported as “downregulated”. Besides, in experiment [17], the “cytochrome C release from mitochondria, western blot” value was “released from mitochondria”. Moreover, the Bcl2 protein levels entry in [17] (by 24hrs of exposure) is given as “significant decrease”. In experiment [18] (mice with a KMCH tumor, 4 mg/kg), this compound yielded a tumor weight inhibition of 43.46%. In addition, in experiment [18] (mice, tumor xenografts, treated for 21 days), the “tumor growth (weight and volume) reduction in size” value is on record as “approximately 45%”.

Consider `COc1ccc2cc3[n+](cc2c1OC)CCc1cc2c(cc1-3)OCO2` [berberine], for which, in experiment [1] (setting [19]), the IC50 was found to be 200 µM. In [2], this compound showed an IC50 of 200 µM. In experiment [17] (10 uM), the “phospho ERK (cell survival pathway), western blot” value is given as “not observed”; the “phospho JNK (cell death signaling pathway), western blot” value is “not observed”; the “phospho p38 (cell death signaling pathway), western blot” value is “not observed”. Moreover, the “cytochrome C release from mitochondria, western blot” value in [17] is reported as “did not result in the release”.

In the case of `CCc1c2c(nc3ccc(OC(=O)N4CCC(N5CCCCC5)CC4)cc13)-c1cc3c(c(=O)n1C2)COC(=O)[C@]3(O)CC` [irinotecan], the results for the IC50 in [1] (setting [19]) and in experiment [2] were 95 µM and 90 µM, respectively.

Turning to `C[C@H](CCC(=O)O)[C@H]1CC[C@H]2[C@@H]3[C@@H](O)C[C@@H]4C[C@H](O)CC[C@]4(C)[C@H]3CC[C@]12C` [ursodeoxycholic acid], the “IC50 (cell viability)” value in [1] (KMCH cells, 24 hour treatment) is “no IC50”; in experiment [2] it was “no IC50”.
